Measurements as given in US6492536B2, “Steroids, their use as medicaments, their preparation process, the intermediates of this process and the compositions containing them” (Aventis Pharma S.A., priority 1996, dated 2002).

Key:
Female Wistar rats [1] = experiment: Thymolytic activity (thymus weight in granuloma test); assay type: in vivo; settings: rat, oral route, once a day for four days
Method: (§1) Granuloma Test—Thymolytic Activity
(§2) The anti-inflammatory activity was studied according to the standard granuloma test. The technique used is a modification of the method of Meier and Coll. (Experentia, 1950, 6, 469). Female Wistar rats, weighing 90 to 100 g, receive an implantation of two cotton pellets of 10 mg each under the skin of the thorax. The products are immediately administered by oral route, a the rate of once a day for four days. The animals are then sacrificed. The pellets surrounded by the granuloma tissue formed, are weighed in the fresh state, then after eighteen hours at 60° C. The weight of the granuloma is obtained by deduction of the initial weight of the cotton.
The thymuses are also removed and weighed in order to determine the thymolytic activity of the products.

male mice = experiment: Ear oedema test induced by croton oil; assay type: in vivo; settings: applied to the ear, 6 hours
Method: Ear Oedema Test Induced by Croton Oil
The products have also been tested in the model of the ear oedema of mice using croton oil according to the method described in Tonelli et al. (Endocrinology, 1965, 77, 625-634). An ear oedema is induced in male mice weighing 18 to 22 g, by using croton oil (2% v/v) in a pyridine-water-ether solution 4:1:14.6 (by volume). The animals are sacrificed 6 hours later, the ears are removed and weighed. The difference in weight between the ear treated with croton oil and the contralateral ear (non-treated) allows 100% of the oedema to be determined. The products to be tested are dissolved in the solution of croton oil and applied to the ear.

collagenase promoter = experiment: Regulation of transcription in transfected Hela cells: transrepression (Coll (-517/+63) CAT plasmid); assay type: cell-based; settings: 24 hours, CAT ELISA; for inhibition at 1 µM / inhibition at 0.1 µM / inhibition at 0.01 µM / inhibition at 0.001 µM: Homo sapiens
Method: (§3) The molecules according to the invention have been tested in models of HELA cells transfected with the GRE-tk-CAT plasmid (transactivation), or with the pColl-CAT plasmid (transrepression). (Cf. TEST 1)
(§4) I) Study of the regulation of transcription in transfected Hela cells.
(§5) Hela cells (ATCC ref: CCL-2) are distributed in a 6-well plate, in a nutritive medium with a density of 4×10^5 cells/ml, 24 hours before the transfection, and are incubated at 37° C. The transitory transfections are produced according to the precipitate method with calcium phosphate. In the case of the study of transactivation, the cells are transfected with 1 μg of GRE-tk-CAT plasmid, 1 μg of polyII β-GAL plasmid and KS plasmid (Stratagene), s.q.f. 5 μg. In the case of the study of transrepression, the cells are transfected with 3 μg of Coll (−517/+63) CAT plasmid, 250 ng of pSV-cjun plasmid, 1 μg of polyII β-GAL plasmid and KS plasmid (Stratagene), s.q.f. 5 μg. The precipitate is left in contact with the cells for 16 hours. These are then rinsed and covered with the nutritive medium containing different concentrations of Dexamethasone or the products to be studied (10^−9M, 10^−8M, 10^−7M, 10^−6M). 24 hours after the addition of the products, the cells are lysed in 250 μl of MOPS-NaCl-Triton X-100 buffer. The CAT is dosed in the cellular extracts using the ELISA Kit (Boehringer Mannheim).

Male Wistar rats = experiment: Retarded hypersensitivity test (M. Tuberculosis), immunosuppressive activity; assay type: in vivo; settings: oral route from day 4 to 7, paw oedema 24 hours after antigen; for ED50: Mycobacterium tuberculosis, 4TO7, rat, read-out: Retarded hypersensitivity (M. Tuberculosis, rat) ED 50
Method: 3) Immunosuppressive Activity.
The immunosuppressive activity was studied according to the retarded hypersensitivity test described in the article by Hambleton et al. (Agents and Actions, […], 29, 328). Male Wistar rats weighing 150 to 160 g are sensitized on day 0 with a suspension of Mycobacterium Tuberculosis 4 mg/ml in parrafin oil by a sub-cutaneous injection at the base of the tail (0.1 ml/animal).
The products are administered by oral route from day 4 to 7.
On day 7, one hour after the last administration, the animals receive an injection of the soluble fraction of the antigen triggering the hypersensitivity reaction: 0.4 mg/rat in 0.2 ml by intraplantar route in a rear paw, the other receives the same quantity of solvent.
The oedema is measured 24 hours afterwards using an UGO BASIL plethysmometer from APELEX.
The activity of the products is evaluated by the percentage reduction in the increase of the injected paw relative to that of the control animals.

Female Wistar rats [2] = experiment: Granuloma test (cotton pellets), anti-inflammatory activity; assay type: in vivo; settings: rat, oral route, once a day for four days
Method: as §1, §2

GRE-tk promoter = experiment: Regulation of transcription in transfected Hela cells: transactivation (GRE-tk-CAT plasmid); assay type: cell-based; settings: 24 hours, CAT ELISA
Method: as §3, §4, §5

Structure (SMILES) | Thymolysis ED 50 (Female Wistar rats [1]) | Oedema using croton oil (mouse) ED 50 (male mice) | inhibition at 1 µM (collagenase promoter; 10^-6 M) | inhibition at 0.1 µM (collagenase promoter; 10^-7 M) | inhibition at 0.01 µM (collagenase promoter; 10^-8 M) | inhibition at 0.001 µM (collagenase promoter; 10^-9 M) | ED50 (Male Wistar rats) | Granuloma ED 50 (Female Wistar rats [2]) | Activation of GRE-tk (%) (GRE-tk promoter; 10^-6 M) | Activation of GRE-tk (%) (GRE-tk promoter; 10^-7 M) | Activation of GRE-tk (%) (GRE-tk promoter; 10^-8 M) | Activation of GRE-tk (%) (GRE-tk promoter; 10^-9 M) | Inhibition of the Coll promoter (%) (collagenase promoter; 10^-6 M) | Inhibition of the Coll promoter (%) (collagenase promoter; 10^-7 M) | Inhibition of the Coll promoter (%) (collagenase promoter; 10^-8 M) | Inhibition of the Coll promoter (%) (collagenase promoter; 10^-9 M) | Retarded hypersensitivity (M. Tuberculosis, rat) ED 50 (Male Wistar rats)
C[C@@H]1C[C@H]2[C@@H]3CCC4=CC(=O)C=C[C@]4(C)[C@@]3(F)[C@@H](O)C[C@]2(C)[C@@]1(O)C(=O)CO [Dexamethasone, reference compound] | <0.05 mg/kg/po | 1 μg/ear | 93.1% | 96.6% | 87.6% | 42.2% | 0.05 mg/kg | 0.1 mg/kg/po | 98.82 +/− 1.18% | 89.48 +/− 2.26% | 53.38 +/− 2.65% | 7.34 +/− 2.57% | – | – | – | – | –
CSCC(=O)[C@H]1[C@H](C)C[C@H]2[C@@H]3CCC4=CC(=O)C=C[C@]4(C)[C@@]3(F)[C@@H](O)C[C@@]21C [Example 1, 9α-fluoro-11β-hydroxy-16α-methyl-21-thiomethyl-pregna-1,4-diene-3,20-dione] | 2.5 mg/kg/po | 10 μg/ear | – | – | – | – | – | 5 mg/kg/po | 37.56 +/− 1.9% | 35.21 +/− 2.24% | 27.74 +/− 1.05% | 3.78 +/− 0.87% | 81.79 +/− 2.98% | 57.61 +/− 2.46% | 37.12 +/− 6.7% | 3.57 +/− 3.09% | 2.3 mg/kg
C[C@@H]1C[C@H]2[C@@H]3CCC4=CC(=O)C=C[C@]4(C)[C@@]3(F)[C@@H](O)C[C@]2(C)[C@H]1C(=O)CC#N [Example 2, 9α-fluoro-11β-hydroxy-16α-methyl-pregna-1,4-diene-3,20-dione-21-carbonitrile] | 2.5 mg/kg/po | 2 μg/ear | 75.6% | 81.3% | 36.2% | 20.6% | 1.5 mg/kg | >7 mg/kg/po | 16.92 +/− 3.55% | 10.45 +/− 4.33% | 1.34 +/− 1.33% | 0% | – | – | – | – | –
C[C@]12C=CC(=O)C=C1CC[C@@H]1[C@@H]2[C@@H](O)C[C@@]2(C)[C@H]1CC[C@]2(O)C(=O)CO [Prednisolone, reference compound] | 1.6 mg/kg/po | 4 μg/ear | – | – | – | – | 5 to 20 mg/kg | 2.5 mg/kg/po | – | – | – | – | – | – | – | – | –
